Experimental data as given in patent publication US9403756B2, “N-phenyl anthranilic acid derivatives and uses thereof” (Ramot at Tel-Aviv University Ltd., priority 2007, dated 2016).
“And” between values parts separate entries of the source, which are not always exact repeats. Equal entries are not always repeated. Where two headings read alike, the source gives them in different places.

Key:
[1] = test system: hippocampal neurons; test: Current-clamp recordings in cultured hippocampal neurons; format: cell-based, rat
Method: For hippocampal neuronal cultures, Sprague-Dawley rat embryos (E18) were removed by caesarian section and their hippocampi were dissected out. The tissue was digested with papain for 20 min, triturated to a single-cell suspension, and plated at a density of 40,000 cells per ml on a substrate of bovine collagen type IV and 100 μg/ml poly-L-lysine in 13 mm diameter glass coverslips of a 24-multiwell plate. The culture medium consisted of Modified Eagle's Medium containing 5% horse serum (Biological Industries, Beit HaEmek, Israel), B-27 neuronal supplement (Invitrogen, Carlsbad, Calif.), 100 U/ml penicillin, 100 μg/ml streptomycin, and 2 mM glutamine. D-glucose was supplemented to a final concentration of 6 g/l. Cytosine-1-D-arabinofuranoside (5 μM) was added after 5 days to arrest glial cell proliferation.
For electrophysiological recordings hippocampal neurons were used at 10-14 days in culture. All cultures were maintained at 37° C. in humidified air containing 5% CO2.
For current-clamp recordings in primary cultured neurons, the patch pipettes were filled with (in mM): 135 KCl, 1 K2ATP, 1 MgATP, 2 EGTA, 1.1 CaCl2, 5 glucose, 10 HEPES, adjusted with KOH at pH 7.4 (315 mOsm). […] A liquid junction potential of about −15.6 mV was measured between the intracellular and saline solutions and corrected on-line. […]

[2] = target: T1, Kv7.2/3 channels (Homo sapiens, UniProt O43525+O43526); test: Kv7.2/3 channels coexpressed in CHO cells, whole-cell patch-clamp; format: cell-based; conditions: for V50: control V50=−32.1±8.9 mV; for fold increase in current amplitude: stepped from −90 to −50 mV, n=10; for Activity: M-channel modulation, Kv7.2 and Kv7.3 subunits coexpressed in CHO cells; for ΔV50 (mV): left-shift of the activation curve of Kv7.2/3 channels
T1 construct: expressed in transfected cells; host or cells: CHO cells
Method: Chinese hamster ovary (CHO) cells were grown in Dulbecco's modified Eagle's medium (DMEM) supplemented with 2 mM glutamine, 10% fetal calf serum and antibiotics. Briefly, 40,000 cells seeded on poly-D-lysine-coated glass coverslips (13 mm diameter) in a 24-multiwell plate were transfected with pIRES-CD8 (0.5 μg) as a marker for transfection, and with Kv7.2 (0.5 μg) and Kv7.3 (0.5 μg) or TRPV1 […] or TRPV6 […].
For electrophysiology, transfected cells were visualized approximately 40 hours following transfection, using anti-CD8 antibody-coated beads. Transfection was performed using Fugene 6 (Roche, Indianapolis Ind., USA) according to the manufacturer's protocol.
Voltage-clamp recordings in CHO cells were performed, using the whole-cell configuration of the patch-clamp technique. Signals were amplified using an Axopatch 200B patch-clamp amplifier (Molecular Devices, Sunnyvale, Calif.), sampled at 2 kHz and filtered at 800 Hz via a 4-pole Bessel low pass filter. […] The patch pipettes were pulled from borosilicate glass (Warner Instrument Corp, USA) with a resistance of 2-5 MΩ. For K^+ current recordings in CHO cells, the intracellular pipette solution contained (in mM): 130 KCl, 1 MgCl2, 5 K2ATP, 5 EGTA, 10 HEPES, adjusted with KOH to pH 7.4 (290 mOsm). The extracellular solution contained (in mM): 140 NaCl, 4 KCl, 1.8 CaCl2, 1.2 MgCl2, 11 glucose, 5.5 HEPES, adjusted with NaOH to pH 7.4 (310 mOsm).
Data analysis was performed using the Clampfit program (pClamp 9.2, Molecular Devices), Microsoft Excel (Microsoft) and Prism 4.0 (GraphPad). Chord conductance (G) was calculated by using the following equation: G=I/(V−Vrev) where I corresponds to the current amplitude measured at the end of the pulse and Vrev, the calculated reversal potential. G was estimated at various test voltages V and then, normalized to a maximal conductance value, Gmax. Activation curves were fitted by one Boltzmann distribution: G/Gmax=1/{1+exp[(V50−V)/s]} where V50 is the voltage at which the current is half-activated and s is the slope factor. All data were expressed as mean±SEM. Statistically significant differences were assessed by Student's t-test. Analysis of sEPSCs and sIPSCs was done using the Clampfit program (pClamp 9.2, Molecular Devices) and included evaluation of the individual events as well as the average event amplitude and the integral of the event (total charge transfer).
In these studies, the impact of the compounds on M-channel activity was measured by the heterologous coexpression of Kv7.2 and Kv7.3 subunits in CHO cells.

O=C(Cc1cc([N+](=O)[O-])ccc1Nc1c(Cl)cccc1Cl)OCCO [NH25]
number of evoked action potentials ([1]; 25 μM NH25, 75-200 pA for 400 ms, control 9.6±1.0, n=8): 2.1±0.5
hyperpolarization of resting membrane potential ([1]; NH25): −8.5 mV
left-shift of Kv7.2/3 activation curve compared to control ([2]; 10 μM): −11 mV
V50 ([2]; 10 μM NH25, n=5): −43.6±9.0 mV
fold increase in current amplitude ([2]; 10 μM): 3.2 fold
left-shift of Kv7.2/3 activation curve compared to control ([2]; 50 μM): −21 mV
V50 ([2]; 50 μM NH25, n=5): −53.5±9.3 mV
fold increase in current amplitude ([2]; 50 μM): 9.1 fold
left-shift of Kv7.2/3 activation curve compared to control ([2]; 200 μM): −31 mV
V50 ([2]; 200 μM NH25, n=5): −63.1±2.0 mV
Activity [2]: Opener
deactivation kinetics τdeact ([2]; NH25, tail currents at −60 mV, control 129±22 ms, n=5): 284 ± 43 ms
ΔV50 (mV) [2]: −31.0 mV and −31 mV
EC50 ([2]; opener potency, concentration-dependent left-shift in half-activation potential ΔV50, sigmoidal fit, read-out: EC50): 22 µM

O=C(Cc1cc([N+](=O)[O-])cc([N+](=O)[O-])c1Nc1c(Cl)cc([N+](=O)[O-])cc1Cl)NCCO [NH29]
EC50 [2]: 14 ± 2 µM
left-shift of Kv7.2/3 activation curve compared to control ([2]; 10 μM): −13 mV
fold increase of Kv7.2/3 current amplitude ([2]; 25 μM, at −50 mV, n=5): 9.4±1.2 fold
left-shift of Kv7.2/3 activation curve compared to control ([2]; 100 μM): −31 mV
Activity [2]: Opener
ΔV50 (mV) [2]: −31.3 mV
EC50 ([2]; opener potency, concentration-dependent left-shift in half-activation potential ΔV50, sigmoidal fit): 14 µM
